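Briefly, cells in 96-well plates were exposed to five compound concentrations for 48 h, and endpoints were estimated by linear interpolation. Here, GI50 denotes the concentration required for 50% inhibition of growth. TGI marks complete inhibition of growth.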
What was measured:
Test in all cases: NCI anticancer screen, dose series, 48 h
EKVX NSCLC = test system: EKVX NSCLC
HCT-116 colon = test system: HCT-116 colon
HS 578T breast = test system: HS 578T breast
LOX IMVI melanoma = test system: LOX IMVI melanoma
MDA-MB-435 = test system: MDA-MB-435
OVCAR-3 ovarian = test system: OVCAR-3 ovarian
PC-3 prostate = test system: PC-3 prostate
SK-MEL-5 melanoma = test system: SK-MEL-5 melanoma
SNB-75 CNS = test system: SNB-75 CNS
T-47D breast = test system: T-47D breast

| SMILES | TGI (EKVX NSCLC) | TGI (HCT-116 colon) | TGI (HS 578T breast) | TGI (LOX IMVI melanoma) | TGI (MDA-MB-435) | TGI (OVCAR-3 ovarian) | TGI (PC-3 prostate) | TGI (SK-MEL-5 melanoma) | TGI (SNB-75 CNS) | TGI (T-47D breast) | GI50 (EKVX NSCLC) | GI50 (HS 578T breast) | GI50 (LOX IMVI melanoma) | GI50 (PC-3 prostate) | GI50 (SK-MEL-5 melanoma) | GI50 (SNB-75 CNS) | GI50 (MDA-MB-435) | GI50 (OVCAR-3 ovarian) |
| --- | --- | --- | --- | --- | --- | --- | --- | --- | --- | --- | --- | --- | --- | --- | --- | --- | --- | --- |
| S=C(S)NCNC(=S)S.[Zn+2] | > 100 µM | > 100 µM | > 100 µM | > 100 µM | > 100 µM | > 100 µM | > 100 µM | > 100 µM | > 100 µM | > 100 µM | – | – | – | – | – | – | – | – |
| CCOC(=O)C12OC(CCC1=O)C(C(=O)OC)=C2C(=O)OC (configuration not stated) | > 10 µM | > 10 µM | > 10 µM | > 10 µM | > 10 µM | > 10 µM | > 10 µM | > 10 µM | > 10 µM | > 10 µM | – | – | – | – | – | – | – | – |
| Cn1c(=O)n(C2(C)C[Se]C2)c2ccccc21 | > 100 µM | > 100 µM | – | > 100 µM | – | – | – | > 100 µM | > 100 µM | – | – | – | – | – | – | – | – | – |
| O=c1c(/C=C/c2c(O)ccc3ccccc23)nnc2sc(-c3cccc(Br)c3)nn12 | 98.1 µM | > 100 µM | > 100 µM | 26.9 µM | > 100 µM | > 100 µM | > 100 µM | 37.5 µM | – | 37.3 µM | – | – | – | – | – | – | – | – |
| Fc1cc(-c2cc(-c3ccccc3)no2)c(Cl)cc1Cl | > 51.9 µM | > 31.7 µM | > 88.9 µM | > 21.2 µM | > 35.9 µM | > 40.1 µM | > 50 µM | > 33.5 µM | > 54.4 µM | > 57.7 µM | – | – | – | – | – | – | – | – |
| O=C(Cn1c[n+](CC(=O)c2ccc(-c3ccccc3)cc2)c2ccccc21)Nc1cccc2cccnc12 | 4.13 µM | – | 4.3 µM | 3.03 µM | – | – | 2.29 µM | 3.11 µM | 4.03 µM | – | 1.63 µM | 1.7 µM | 1.54 µM | 1.03 µM | 1.73 µM | 1.65 µM | – | – |
| N#Cc1c2ccccc2cn1-c1ccc(F)cc1 | – | 62.3 µM | – | – | – | 67.9 µM | – | – | 18.9 µM | – | – | – | – | – | – | – | – | – |
| NNC(=O)c1n[nH]nc1C(=O)NN | – | > 100 µM | – | – | > 100 µM | > 100 µM | > 100 µM | > 100 µM | – | – | – | – | – | – | – | – | – | – |
| CC(C)C(=O)OCC1OC(n2c(Br)nc3c(=O)[nH]c(N)nc32)C(OC(=O)C(C)C)C1OC(=O)C(C)C (configuration not stated) | > 100 µM | > 100 µM | > 100 µM | 55.5 µM | – | > 100 µM | 62.9 µM | – | > 100 µM | > 100 µM | – | – | – | – | – | – | – | – |
| COc1ccc(S(=O)(=O)c2nnc(S(=O)(=O)Cc3ccccc3)s2)cc1 | 57.2 µM | 38.1 µM | 43 µM | – | 71.8 µM | > 100 µM | 47.7 µM | 34.2 µM | 31.8 µM | 91.9 µM | – | – | – | – | – | – | – | – |
| O=C(O)C(NCc1ccccc1)C(NCc1ccccc1)C(=O)O (configuration not stated) | > 100 µM | > 100 µM | > 100 µM | > 100 µM | > 100 µM | > 100 µM | – | > 100 µM | > 100 µM | > 100 µM | – | – | – | – | – | – | – | – |
| Cc1nc2c(nc1C)-c1[nH]c3c(c1C(=O)C2=O)CCCC3=O | 3.71 µM | – | > 59.2 µM | 2.87 µM | 1.48 µM | 2.07 µM | 15.7 µM | 3.02 µM | 3.31 µM | 0.709 µM | – | – | – | – | – | – | – | – |
| Cc1ccc(-n2c(N)c(C#N)c3[nH]nc(N)c3c2=O)cc1 | > 100 µM | > 100 µM | > 100 µM | > 100 µM | > 100 µM | – | > 100 µM | > 100 µM | > 100 µM | > 100 µM | – | – | – | – | – | – | – | – |
| CC(=O)Oc1ccc2c(C)cc(=O)oc2c1OC(C)=O | > 100 µM | > 100 µM | 99.5 µM | > 100 µM | > 100 µM | > 100 µM | > 100 µM | > 100 µM | > 100 µM | – | – | – | – | – | – | – | – | – |
| CC#CCOC(=O)c1ccccc1OC(C)=O | > 100 µM | > 100 µM | > 100 µM | > 100 µM | > 100 µM | – | > 100 µM | > 100 µM | > 100 µM | > 100 µM | – | – | – | – | – | – | – | – |
| O=C(Nc1nc(C23CC4CC(CC(C4)C2)C3)cs1)c1cc2ccc(O)cc2oc1=O | 43.3 µM | 25.6 µM | 37.8 µM | 22.2 µM | 31.8 µM | 60.5 µM | 35.4 µM | 39 µM | – | – | – | – | – | – | – | – | – | – |
| C=C(C)[C@@H]1CC[C@]2(C(=O)NC3CCCCC3)CC[C@]3(C)[C@H](CC[C@@H]4[C@@]5(C)CCCNC(C)(C)[C@@H]5CC[C@]43C)[C@@H]12 | – | – | – | – | 3.15 µM | 3.57 µM | – | – | 3.05 µM | – | – | – | – | – | – | 1.48 µM | 1.7 µM | 1.87 µM |
| O=c1cc(-c2cccc3ccccc23)[nH]c2ncccc12 | > 100 µM | 21.3 µM | > 100 µM | – | 0.00404 µM | – | > 100 µM | – | – | – | 0.0239 µM | 0.0186 µM | – | – | – | – | – | – |
| Nc1ncnc2c1ncn2[C@@H]1C[C@@H]1CO | > 100 µM | > 100 µM | > 100 µM | > 100 µM | > 100 µM | > 100 µM | > 100 µM | – | – | > 100 µM | – | – | – | – | – | – | – | – |
| CN(CC(=O)O)c1ncc2c(n1)CCCC2 | > 100 µM | > 100 µM | > 100 µM | > 100 µM | > 100 µM | > 100 µM | > 100 µM | > 100 µM | > 100 µM | – | – | – | – | – | – | – | – | – |
| O=C(O)CCC(NC(=O)c1ccc(Nc2nc3cc(C(F)(F)F)ccc3nc2-c2ccccc2)cc1)C(=O)O (configuration not stated) | > 100 µM | > 100 µM | – | > 100 µM | – | > 100 µM | – | > 100 µM | > 100 µM | – | – | – | – | – | – | – | – | – |
| CC1(C)N=C(N)N=C(N)N1c1ccc(CCc2ccccc2)cc1 | 91.5 µM | > 100 µM | – | > 100 µM | – | > 80.6 µM | – | 9.63 µM | > 94.3 µM | – | – | – | – | – | – | – | – | – |
| COc1ccc2cc(/C=N/NC(=O)Nc3ccccc3)ccc2c1 | – | > 100 µM | > 100 µM | > 100 µM | > 100 µM | > 100 µM | > 100 µM | > 100 µM | > 100 µM | > 100 µM | – | – | – | – | – | – | – | – |
| N#Cc1c(-c2ccc(Cl)cc2Cl)nc2[nH][nH]c(=S)n2c1=O | > 100 µM | > 100 µM | > 100 µM | > 100 µM | > 100 µM | – | > 100 µM | > 100 µM | – | > 100 µM | – | – | – | – | – | – | – | – |
| COc1cc2c(C)cc(O)cc2c2cc(O)c(C)cc12 | 22.6 µM | 20.7 µM | 53.8 µM | 9.22 µM | 19.2 µM | 22.3 µM | 19 µM | 20.3 µM | – | 20.5 µM | – | – | – | – | – | – | – | – |

— PubChem BioAssay (NCI)
